Experimental data reported in patent publication US11696921B2, “Synthetic composition for microbiota modulation” (GLYCOM A/S, priority 2015, dated 2023).

Columns and labels:
[1] = system: totality of B. longum + B. bifidum + B. animalis lactis + B. angulatum; experiment: Faecal microbiota / Bifidobacterium profiling after 2 weeks' daily HMO consumption by healthy adults; type: in vivo, human; conditions: oral
Experimental: (§1) A total of 100 male and female healthy adults are recruited to participate in the study. After a screening visit and run-in period of 1-2 weeks, the participants are selected and randomized into ten groups, each of 10 subjects. One group is administered a placebo product containing 2 grams of glucose. The remaining 9 groups are administered treatment product containing a) 20 g of 2′-FL, b) 10 g of 2′-FL, c) 5 g of 2′-FL, d) 20 g of LNnT, e) 10 g of LNnT, f) 5 g of LNnT, g) 20 g of a 2:1 mixture of 2′-FL and LNnT, h) 10 g of a 2:1 mixture of 2′-FL and LNnT, and i) 5 g of a 2:1 mixture of 2′-FL and LNnT for 2 weeks (the amounts correspond to a daily dose). The placebo and treatment products are in powder form in a unit dosage container.
(§2) At the second visit, eligibility criteria are checked and eligible subjects are randomised to the ten arms in the trial (treatment groups and placebo group). The faecal samples are collected and equipment for new samples are distributed. Participants are familiarised with an interactive internet enabled system which recorded data daily and are provided with either treatment or control products. Subjects are reminded not to change their usual diet during the study. Blood samples are collected for biomarker studies. The faecal samples are stored at −80° C. until analysis.
(§3) The study runs for 2 weeks with the participants consuming either a placebo or a treatment product daily. Participants are instructed to consume the products in the morning with breakfast. Compliance is monitored through the interactive internet enabled system.
(§4) At the end of the study, each participant has an exit visit with the medical team. Faecal samples and blood samples are collected.
(§5) To assess the microbiota profile, DNA is extracted from the faecal samples using a 96-well PowerSoil DNA Isolation Kit (MO-BIO). A minimum of one sample-well per plate is kept empty to serve as a negative control during PCR. PCR is done with the forward primer S-D-Bact-0341-b-S-17 and reverse primer S-D-Bact-0785-a-A-21 (Klindworth et al. Nucleic Acids Res. 41, e1 (2013)) with Illumina adapters attached. These are universal bacterial 16S rDNA primers, which targeted the V3-V4 region. The following PCR program is used: 98° C. for 30 sec, 25× (98° C. for 10 s, 55° C. for 20 s, 72° C. for 20 s), 72° C. for 5 min. Amplification is verified by running the products on a 1% agarose gel. Barcodes are added in a nested PCR using the Nextera Index Kit V2 (Illumina) with the following PCR program: 98° C. for 30 sec, 8× (98° C. for 10 s, 55° C. for 20 s, 72° C. for 20 s), 72° C. for 5 min. Attachment of primers is verified by running the products on a 1% agarose gel. Products from the nested PCR are normalized using the SequalPrep Normalization Plate Kit and pooled. Pooled libraries are concentrated by evaporation and the DNA concentration of pooled libraries is measured on a Qubit fluorometer using the Qubit High Sensitivity Assay Kit (Thermo Fisher Scientific). Sequencing is done on a MiSeq desktop sequencer using the MiSeq Reagent Kit V3 (Illumina) for 2×300 bp paired-end sequencing. The 64-bit version of USEARCH is used for bioinformatical analysis of the sequence data.
(§6) To assess the Bifidobacterium community, ITS profiling of DNA samples is performed according to Milani et al. FEMS Microbiol. Ecol. 90, 493 (2014). […] Both B. adolescentis and B. pseudocatenulatum are members of the B. adolescentis phylogenetic group. It can be seen that oral ingestion of the HMOs clearly increases the abundance of B. adolescentis and/or B. pseudocatenulatum in the microbiota of healthy adults, as well as their relative abundance compared to the totality of other Bifidobacterium species.

[2] = system: B. adolescentis phylogenetic group; experiment: as above; type: in vivo, human; conditions: oral
Experimental: as §1, §2, §3, §4, §5, §6

Molecule | percentage increase of totality of B. longum + B. bifidum + B. animalis lactis + B. angulatum in human faeces ([1]; 5 g daily dose) [%] | percentage increase of totality of B. longum + B. bifidum + B. animalis lactis + B. angulatum in human faeces ([1]; 10 g daily dose) [%] | percentage increase of totality of B. longum + B. bifidum + B. animalis lactis + B. angulatum in human faeces ([1]; 20 g daily dose) [%] | percentage increase of B. adolescentis phylogenetic group in human faeces ([2]; 5 g daily dose) [%] | percentage increase of B. adolescentis phylogenetic group in human faeces ([2]; 10 g daily dose) [%] | percentage increase of B. adolescentis phylogenetic group in human faeces ([2]; 20 g daily dose) [%]
CC(=O)N[C@H]1[C@H](O[C@H]2[C@@H](O)[C@@H](CO)O[C@@H](O[C@H]3[C@H](O)[C@@H](O)C(O)O[C@@H]3CO)[C@@H]2O)O[C@H](CO)[C@@H](O[C@@H]2O[C@H](CO)[C@H](O)[C@H](O)[C@H]2O)[C@@H]1O (mixture of isomers) [LNnT, lacto-N-neotetraose] | 50 | 130 | 105 | 90 | 195 | 185
2′-fucosyllactose [2′-FL] | 0 | 20 | 15 | 50 | 325 | 120
